{
  "source": "patent US20240383954A1",
  "about": "“PEPTIDE INHIBITORS OF INTERLEUKIN-23 RECEPTOR AND THEIR USE TO TREAT INFLAMMATORY DISEASES” (Janssen Biotech, Inc., priority 2020, published 2024)",
  "target": "IL-23R (Homo sapiens, UniProt Q5VWK5)",
  "sequence (Q5VWK5 24-629)": "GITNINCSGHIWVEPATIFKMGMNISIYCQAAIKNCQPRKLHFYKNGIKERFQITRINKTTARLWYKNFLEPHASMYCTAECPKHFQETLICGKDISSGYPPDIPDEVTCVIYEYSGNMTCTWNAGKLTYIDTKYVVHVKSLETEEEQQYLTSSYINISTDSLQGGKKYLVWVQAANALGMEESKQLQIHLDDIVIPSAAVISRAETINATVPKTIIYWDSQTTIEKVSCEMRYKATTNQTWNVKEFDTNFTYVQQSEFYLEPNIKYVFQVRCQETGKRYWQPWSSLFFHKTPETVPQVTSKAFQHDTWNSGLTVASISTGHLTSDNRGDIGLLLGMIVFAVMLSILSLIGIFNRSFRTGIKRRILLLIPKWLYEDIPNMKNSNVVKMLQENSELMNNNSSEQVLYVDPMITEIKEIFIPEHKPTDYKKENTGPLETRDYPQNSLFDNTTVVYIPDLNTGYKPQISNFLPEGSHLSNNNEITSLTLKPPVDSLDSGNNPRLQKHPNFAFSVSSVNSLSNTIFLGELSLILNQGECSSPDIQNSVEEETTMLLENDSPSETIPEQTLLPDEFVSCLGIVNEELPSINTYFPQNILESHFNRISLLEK",
  "test": "cell-based",
  "note": "Positions of bridges follow the written chain, without caps; N, C: chain ends. Non-standard residues stand in square brackets, D forms with d. Residues, ends and D or L forms follow the SMILES beside them. Trp(7-Me) = Cc1cccc2c(C[C@H](N)C(=O)O)c[nH]c12; 2Nal = N[C@@H](Cc1ccc2ccccc2c1)C(=O)O; AEF = NCCOc1ccc(C[C@H](N)C(=O)O)cc1; Pen = CC(C)(S)[C@H](N)C(=O)O; αMeK = C[C@](N)(CCCCN)C(=O)O; dDap = NC[C@@H](N)C(=O)O",
  "source_text": "DB Cells IL23R pSTAT3 Cell Assay\nChanges in phospho-STAT3 levels in the cell lysates were detected using the Cisbio HTRF pSTAT3 Cellular Assay Kit, according to manufacturer's Two Plate Assay protocol.",
  "data": [
    {"smiles": "CC(=O)NCCCC[C@@H]1NC(=O)[C@H](Cc2c[nH]c3c(C)cccc23)NC(=O)[C@H]([C@@H](C)O)NC(=O)[C@H](CC(N)=O)NC(=O)[C@@H](NC(C)=O)C(C)(C)SSC(C)(C)[C@@H](C(=O)N[C@@H](Cc2ccc(OCCN)cc2)C(=O)N[C@@H](Cc2ccc3ccccc3c2)C(=O)N[C@@](C)(CCCCN)C(=O)N[C@@H](CCCCNC(C)=O)C(=O)N[C@@H](CC(N)=O)C(=O)N[C@H](CC(C)C)C(=O)N[C@](C)(Cc2ccccc2)C(N)=O)NC1=O", "note": "[Compound 69, Ac-[Pen]-N-T-[W(7-Me)]-[Lys(Ac)]-[Pen]-Phe[4-(2-aminoethoxy)]-[2-Nal]-[a-MeLys]-[Lys(Ac)]-N-[(D)Leu]-[(D)aMePhe]-NH2]", "values": [
      {"measurement": "IC50", "value": 2.75, "unit": "nM"}
    ]},
    {"smiles": "CC(=O)NCCCC[C@@H]1NC(=O)[C@H](Cc2c[nH]c3c(C)cccc23)NC(=O)[C@H]([C@@H](C)O)NC(=O)[C@H](CC(N)=O)NC(=O)[C@@H](NC(C)=O)C(C)(C)SSC(C)(C)[C@@H](C(=O)N[C@@H](Cc2ccc(OCCN)cc2)C(=O)N[C@@H](Cc2ccc3ccccc3c2)C(=O)N[C@@](C)(CCCCN)C(=O)N[C@@H](CCCCNC(C)=O)C(=O)N[C@@H](CC(N)=O)C(=O)NC(C)(C)C(=O)NCCCCCC(N)=O)NC1=O", "note": "[Compound 70, Ac-[Pen]-N-T-[W(7-Me)]-[Lys(Ac)]-[Pen]-Phe[4-(2-aminoethoxy)]-[2-Nal]-[a-MeLys]-[Lys(Ac)]-N-[Aib-Ahx]-NH2]", "values": [
      {"measurement": "IC50", "value": 1.22, "unit": "nM"}
    ]},
    {"smiles": "CC(=O)NCCCC[C@@H]1NC(=O)[C@H](Cc2c[nH]c3c(C)cccc23)NC(=O)[C@H]([C@@H](C)O)NC(=O)[C@H](CC(N)=O)NC(=O)[C@@H](NC(C)=O)C(C)(C)SSC(C)(C)[C@@H](C(=O)N[C@@H](Cc2ccc(OCCN)cc2)C(=O)N[C@@H](Cc2ccc3ccccc3c2)C(=O)N[C@@](C)(CCCCN)C(=O)N[C@@H](CCCCNC(C)=O)C(=O)N[C@@H](CC(N)=O)C(=O)NC(C)(C)C(=O)N[C@H](CC(N)=O)Cc2ccccc2)NC1=O", "note": "[Compound 71, Ac-[Pen]-N-T-[W(7-Me)]-[Lys(Ac)]-[Pen]-Phe[4-(2-aminoethoxy)]-[2-Nal]-[a-MeLys]-[Lys(Ac)]-N-[Aib]-[bhPhe]-NH2]", "values": [
      {"measurement": "IC50", "value": 3.39, "unit": "nM"}
    ]},
    {"smiles": "CC(=O)NCCCC[C@@H]1NC(=O)[C@H](Cc2c[nH]c3c(C)cccc23)NC(=O)[C@@H](CN)NC(=O)[C@H](CC(N)=O)NC(=O)[C@@H](NC(C)=O)C(C)(C)SSC(C)(C)[C@@H](C(=O)N[C@@H](Cc2ccc(OCCN)cc2)C(=O)N[C@@H](Cc2ccc3ccccc3c2)C(=O)N[C@@](C)(CCCCN)C(=O)N[C@@H](CCCCNC(C)=O)C(=O)N[C@@H](CC(N)=O)C(=O)N[C@H](CC(C)C)C(N)=O)NC1=O", "note": "[Compound 72, Ac-[Pen]-N-[(D)Dap]-[W(7-Me)]-[Lys(Ac)]-[Pen]-Phe[4-(2-aminoethoxy)]-[2-Nal]-[a-MeLys]-[Lys(Ac)]-N-[(D)Leu]-NH2] (Ac-[Pen]N[dDap][Trp(7-Me)]K(Ac)[Pen][AEF][2Nal][αMeK]K(Ac)N[dL]-NH2; disulfide 1-6)", "values": [
      {"measurement": "IC50", "value": 52.6, "unit": "nM"}
    ]},
    {"smiles": "CC(=O)NCCCC[C@@H]1NC(=O)[C@H](Cc2c[nH]c3c(C)cccc23)NC(=O)[C@@H](CCCCN)NC(=O)[C@H](CC(N)=O)NC(=O)[C@@H](NC(C)=O)C(C)(C)SSC(C)(C)[C@@H](C(=O)N[C@@H](Cc2ccc(OCCN)cc2)C(=O)N[C@@H](Cc2ccc3ccccc3c2)C(=O)N[C@@](C)(CCCCN)C(=O)N[C@@H](CCCCNC(C)=O)C(=O)N[C@@H](CC(N)=O)C(=O)N[C@H](CC(C)C)C(N)=O)NC1=O", "note": "[Compound 73, Ac-[Pen]-N-[(D)Lys]-[W(7-Me)]-[Lys(Ac)]-[Pen]-Phe[4-(2-aminoethoxy)]-[2-Nal]-[a-MeLys]-[Lys(Ac)]-N-[(D)Leu]-NH2] (Ac-[Pen]N[dK][Trp(7-Me)]K(Ac)[Pen][AEF][2Nal][αMeK]K(Ac)N[dL]-NH2; disulfide 1-6)", "values": [
      {"measurement": "IC50", "value": 51.1, "unit": "nM"}
    ]}
  ]
}
